# System: K98450-129-R-PDC multicell spheroids, viability
# Assay: Anticancer human tumor K98450-129-R-PDC patient-derived colon adenocarcinoma cell line growth inhibition [PI3K]
# Conditions: for viability, T/C: stronger effect = lower value
# Procedure, shortened: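 We assembled tumor spheroids that included a stromal compartment of HUVEC and MSCs, then exposed them to targeted agents alone and together with PI3K pathway inhibitors. Concentration series descended by half-log from clinically achievable Cmax levels. Viability served as the endpoint.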
# 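Also: spheroids exposed to agents for seven days before read-out.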
smiles,measurement,setting,value
CCCS(=O)(=O)Nc1ccc(F)c(C(=O)c2c[nH]c3ncc(-c4ccc(Cl)cc4)cc23)c1F + Cc1nc(NC(=O)N2CCCC2C(N)=O)sc1-c1ccnc(C(C)(C)C(F)(F)F)c1,IC50,"curve of first compound, second compound 0.0316 µM",6.04 µM
same,IC50,"curve of first compound, second compound 0.1 µM",6 µM
same,IC50,"curve of first compound, second compound 0.316 µM",5.81 µM
same,IC50,"curve of first compound, second compound 1 µM",5.69 µM
same,IC50,"curve of first compound, second compound 3.16 µM",5.33 µM
same,IC50,"curve of first compound, second compound 10 µM",4.79 µM
same,"viability, T/C","second compound 0.0316 µM, first compound 0.0316 µM",106%
same,"viability, T/C","second compound 0.0316 µM, first compound 0.1 µM",98.7%
same,"viability, T/C","second compound 0.0316 µM, first compound 0.316 µM",101%
same,"viability, T/C","second compound 0.0316 µM, first compound 1 µM",101%
same,"viability, T/C","second compound 0.0316 µM, first compound 3.16 µM",124%
same,"viability, T/C","second compound 0.0316 µM, first compound 10 µM",6.29%
same,"viability, T/C","second compound 0.1 µM, first compound 0.0316 µM",108%
same,"viability, T/C","second compound 0.1 µM, first compound 0.1 µM",96.9%
same,"viability, T/C","second compound 0.1 µM, first compound 0.316 µM",105%
same,"viability, T/C","second compound 0.1 µM, first compound 1 µM",103%
same,"viability, T/C","second compound 0.1 µM, first compound 3.16 µM",118%
same,"viability, T/C","second compound 0.1 µM, first compound 10 µM",5.28%
same,"viability, T/C","second compound 0.316 µM, first compound 0.0316 µM",95.8%
same,"viability, T/C","second compound 0.316 µM, first compound 0.1 µM",95.8%
same,"viability, T/C","second compound 0.316 µM, first compound 0.316 µM",94.1%
same,"viability, T/C","second compound 0.316 µM, first compound 1 µM",92.8%
same,"viability, T/C","second compound 0.316 µM, first compound 3.16 µM",120%
same,"viability, T/C","second compound 0.316 µM, first compound 10 µM",5.66%
same,"viability, T/C","second compound 1 µM, first compound 0.0316 µM",89.2%
same,"viability, T/C","second compound 1 µM, first compound 0.1 µM",90.9%
same,"viability, T/C","second compound 1 µM, first compound 0.316 µM",94.3%
same,"viability, T/C","second compound 1 µM, first compound 1 µM",92.9%
same,"viability, T/C","second compound 1 µM, first compound 3.16 µM",107%
same,"viability, T/C","second compound 1 µM, first compound 10 µM",6.99%
same,"viability, T/C","second compound 3.16 µM, first compound 0.0316 µM",84%
same,"viability, T/C","second compound 3.16 µM, first compound 0.1 µM",85.8%
same,"viability, T/C","second compound 3.16 µM, first compound 0.316 µM",84.5%
same,"viability, T/C","second compound 3.16 µM, first compound 1 µM",89%
same,"viability, T/C","second compound 3.16 µM, first compound 3.16 µM",88.8%
same,"viability, T/C","second compound 3.16 µM, first compound 10 µM",6.1%
same,"viability, T/C","second compound 10 µM, first compound 0.0316 µM",70.5%
same,"viability, T/C","second compound 10 µM, first compound 0.1 µM",72.8%
same,"viability, T/C","second compound 10 µM, first compound 0.316 µM",78%
same,"viability, T/C","second compound 10 µM, first compound 1 µM",71.1%
same,"viability, T/C","second compound 10 µM, first compound 3.16 µM",76.9%
same,"viability, T/C","second compound 10 µM, first compound 10 µM",7.67%
C[C@@H](NC(=O)c1ncnc(N)c1Cl)c1ncc(C(=O)Nc2cc(C(F)(F)F)c(Cl)cn2)s1,"viability, T/C",compound 0.0316 µM,108% [middle of 4 runs]
same,"viability, T/C",compound 0.1 µM,110% [middle of 4 runs]
same,"viability, T/C",compound 0.316 µM,119% [middle of 4 runs]
same,"viability, T/C",compound 1 µM,122% [middle of 4 runs]
same,"viability, T/C",compound 3.16 µM,120% [middle of 4 runs]
same,"viability, T/C",compound 10 µM,109% [middle of 4 runs]
same,IC50,curve of compound,> 10 µM
